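Method: 48-hour compound exposure of cells in 96-well plates, five concentrations, linear interpolation of endpoints. Abbreviation: GI50, concentration required for 50% inhibition of growth.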 Active and inactive are the calls of the source. Rule as the data show it: active = GI50 up to about 1.1 µM and inactive = higher.
Experiments:
Experiment in all cases: NCI-60 cell line screen, 48 h
[1] = tested on: OVCAR-3
[2] = tested on: NCI-H522
[3] = tested on: NCI-H23
[4] = tested on: PC-3
[5] = tested on: NCI-H226
[6] = tested on: Malme-3M
[7] = tested on: OVCAR-8
[8] = tested on: CAKI-1
[9] = tested on: IGROV-1
[10] = tested on: 786-0
[11] = tested on: T47D
[12] = tested on: HL-60
[13] = tested on: SK-MEL-5
[14] = tested on: UACC-62
[15] = tested on: SR
[16] = tested on: NCI/ADR-RES
[17] = tested on: MDA-MB-231
[18] = tested on: UACC-257
[19] = tested on: OVCAR-4
[20] = tested on: ACHN

Measured: GI50

Cc1cccc(C(C)O)n1 (stereo not given)
inactive: [1] > 100 µM | [2] > 100 µM | [3] > 100 µM | [4] > 100 µM | [5] > 100 µM | [6] 24 µM | [7] > 100 µM | [8] > 100 µM | [9] > 100 µM | [10] > 100 µM | [11] > 100 µM | [12] > 100 µM | [13] > 100 µM | [14] > 100 µM | [15] > 100 µM | [16] > 100 µM | [17] > 100 µM | [18] > 100 µM | [19] > 100 µM | [20] > 100 µM

CCC(C#N)N(Cc1cccc(CN(C(C)=O)C(C#N)CC)c1)C(C)=O (stereo not given)
inactive: [1] > 100 µM | [2] > 100 µM | [3] > 100 µM | [4] > 100 µM | [5] 44.5 µM | [6] > 100 µM | [7] > 100 µM | [8] > 100 µM | [9] > 100 µM | [10] > 100 µM | [11] 7.24 µM | [12] > 100 µM | [13] > 100 µM | [14] > 100 µM | [15] 77.8 µM | [16] 84.1 µM | [17] 46.6 µM | [18] > 100 µM | [19] 31.4 µM | [20] > 100 µM

O=C(CCl)Nc1ccc(-c2nc3ccccc3s2)cc1
inactive: [1] 1.82 µM | [2] 1.77 µM | [3] 2.96 µM | [4] 2.56 µM | [5] 1.43 µM | [6] 2.07 µM | [7] 2.59 µM | [8] 1.74 µM | [9] 1.34 µM | [10] 2 µM | [11] 1.53 µM | [12] 1.91 µM | [13] 1.6 µM | [14] 2.22 µM | [15] 1.46 µM | [16] 4.59 µM | [17] 3.07 µM | [18] 5.66 µM | [19] 3.37 µM | [20] 5.28 µM

Nc1nc(Cl)cc(NCC2(CO)CCCC2)n1
inactive: [1] > 100 µM | [2] 49.1 µM | [3] 65.6 µM | [4] > 100 µM | [5] > 100 µM | [6] > 100 µM | [7] > 100 µM | [8] > 100 µM | [9] > 100 µM | [10] > 100 µM | [11] > 100 µM | [12] > 100 µM | [13] 80.4 µM | [14] > 100 µM | [15] > 100 µM | [16] 55.8 µM | [17] > 100 µM | [18] 65.8 µM | [19] 19 µM | [20] > 100 µM

COc1cccc(C(C#N)NC23CC4CC(CC(C4)C2)C3)c1 (stereo not given)
inactive: [1] > 100 µM | [2] > 100 µM | [3] > 100 µM | [4] > 100 µM | [5] > 100 µM | [6] > 100 µM | [7] > 100 µM | [8] > 100 µM | [9] > 100 µM | [10] > 100 µM | [11] > 100 µM | [12] > 100 µM | [13] > 100 µM | [14] > 100 µM | [15] > 100 µM | [16] > 100 µM | [17] > 100 µM | [18] > 100 µM | [19] > 100 µM | [20] > 100 µM

Source: ChEMBL document CHEMBL1201862, “PubChem BioAssay data set” (2004)
